The text below walks through data of paper PMC3818959 (Journal of Ginseng Research, 2013).

Each structure is given as a SMILES string.

The test concerns the target KCNQ1 (IKs channel, KCNQ1 + KCNE1) (Homo sapiens, UniProt P51787). The test can be described thus: cell-based.

Sequence of KCNQ1 (IKs channel, KCNQ1 + KCNE1) (P51787 whole entry): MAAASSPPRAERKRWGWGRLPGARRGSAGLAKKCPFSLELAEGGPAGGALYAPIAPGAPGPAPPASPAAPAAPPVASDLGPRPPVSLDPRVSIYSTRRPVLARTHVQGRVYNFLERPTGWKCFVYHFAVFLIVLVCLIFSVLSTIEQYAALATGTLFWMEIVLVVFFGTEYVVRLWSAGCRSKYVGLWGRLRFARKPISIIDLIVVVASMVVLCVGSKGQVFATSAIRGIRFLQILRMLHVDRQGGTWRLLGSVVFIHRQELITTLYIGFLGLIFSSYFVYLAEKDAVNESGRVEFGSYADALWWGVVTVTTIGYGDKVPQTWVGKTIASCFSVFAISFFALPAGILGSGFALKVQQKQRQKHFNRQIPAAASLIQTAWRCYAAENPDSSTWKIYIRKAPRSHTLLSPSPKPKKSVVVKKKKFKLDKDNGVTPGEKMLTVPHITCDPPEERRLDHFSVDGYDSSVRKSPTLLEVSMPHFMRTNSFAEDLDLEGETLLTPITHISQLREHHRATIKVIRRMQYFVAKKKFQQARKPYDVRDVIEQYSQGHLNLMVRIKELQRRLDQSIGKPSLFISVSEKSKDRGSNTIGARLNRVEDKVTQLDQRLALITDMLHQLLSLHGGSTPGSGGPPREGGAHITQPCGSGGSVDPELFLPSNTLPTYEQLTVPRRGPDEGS

Consider `CC(C)=CCC[C@](C)(O)[C@H]1CC[C@]2(C)[C@@H]1[C@H](O)C[C@@H]1[C@@]3(C)CC[C@H](O)C(C)(C)[C@@H]3[C@@H](O)C[C@]12C` [PPT, protopanaxatriol], for which the half-maximal inhibitory concentration (IC50) amounted to 5.18 ± 0.13 µM.

What is called IC50 is the concentration at which inhibition is half-maximal.
